Results as given in article PMC3494675, “Structure-Function Analysis of the Glioma Targeting NFL-TBS.40-63 Peptide Corresponding to the Tubulin-Binding Site on the Light Neurofilament Subunit” (PLoS ONE, 2012).
Square brackets hold non-standard residues; d marks the D form. Peptide text beside a SMILES is read from it. * marks the point of attachment. Biotin = O=C1N[C@H]2[C@H](CS[C@H]2CCCCC(=O)*)N1; pS = N[C@@H](COP(=O)(O)O)C(=O)O

Experiments:
[1] = system: T98G human glioblastoma cells; test: Peptide incorporation into T98G cells (immunocytochemistry, cell counting); assay type: cell-based; conditions: 6 hours; for Peptide incorporation (% of cells): T98G cells, 10 µM biotinylated peptide, Alexa-labeled avidin/streptavidin fluorescence microscopy, minimum 200 cells per experiment, mean ± S.E.M., triplicated; for Cell penetration / internalization in T98G cells (in words): 10 µM, immunocytochemistry, compared to original NFL-TBS.40-63
Protocol: (§1) Cells containing the biotinylated peptide were detected using Alexa-labeled avidin (green fluorescence) and those displaying a normal or a destroyed MT network were detected with an anti-tubulin antibody (red fluorescence) ( Figure 1A-B ). Then, we counted a minimum of 200 cells per slide containing or not the peptide, and with a normal or destroyed microtubule network ( Figure 1C ). As illustrated on Figure 1A glioblastoma cells contain a rich MT network. […] Cells were plated on cover slips and cultured in media containing biotinylated peptides (10 μM) for 6 hours. […] The cells were then incubated during 10 min in a 0.5% triton X-100 permeabilization solution, and washed 3 times in PBS. Next, they were incubated in a blocking solution (PBS 5% BSA) for 15 min, then incubated with mouse anti-ß-tubulin antibody (Sigma) 1/200 overnight. Tubulin and biotinylated peptides were localized using respectively Alexa 568 nm anti-mouse antibody and streptavidin Alexa 488 nm (Molecular Probes) 1/200 for 1 hour, followed by washing in PBS. […] Sigma) for 5 min, washed twice with PBS, then cover slips were mounted with an antifading solution. Observations were performed with an Olympus confocal microscope (BX50) using Fluoview.3.1. Software or a Leica DMI6000 inverted microscope and analyzed with Metamorph 7.1.7.0. software. We counted cells containing the peptide and cells displaying a destroyed MT network. Experiments were repeated at least three times, and a minimum of 200 cells was scored during each experiment.

[2] = system: T98G human glioblastoma cells; test: Disintegration of the microtubule network in T98G cells (anti-tubulin immunostaining, cell counting); assay type: cell-based; conditions: 6 hours; for Disintegration of MT (% of cells): T98G cells, 10 µM biotinylated peptide, anti-tubulin immunostaining, minimum 200 cells per experiment, mean ± S.E.M., triplicated; for Effect on MT network of T98G / glioma cells (in words): 10 µM, immunocytochemistry
Protocol: as §1

| Compound | Peptide incorporation (% of cells) [1] | Disintegration of MT (% of cells) [2] | Cell penetration / internalization in T98G cells (in words) [1] | Effect on MT network of T98G / glioma cells (in words) [2] |
| --- | --- | --- | --- | --- |
| CC(C)C[C@H](NC(=O)[C@H](CO)NC(=O)[C@H](CO)NC(=O)[C@H](CO)NC(=O)[C@@H](NC(=O)[C@@H]1CCCN1C(=O)[C@H](C)NC(=O)[C@H](CO)NC(=O)[C@H](Cc1ccc(O)cc1)NC(=O)[C@H](CO)NC(=O)[C@H](CO)NC(=O)[C@H](Cc1ccc(O)cc1)NC(=O)CCCC[C@@H]1SC[C@@H]2NC(=O)N[C@@H]21)C(C)C)C(=O)N[C@@H](C)C(=O)N[C@H](C(=O)N[C@@H](CCCNC(=N)N)C(=O)N[C@@H](CCCNC(=N)N)C(=O)N[C@@H](CO)C(=O)N[C@@H](Cc1ccc(O)cc1)C(=O)N[C@@H](CO)C(=O)N[C@@H](CO)C(=O)N[C@@H](CO)C(=O)N[C@@H](CO)C(=O)NCC(=O)N[C@@H](CO)C(N)=O)C(C)C [Ser13Ala] (Biotin-YSSYSAPVSSSLAVRRSYSSSSGS-NH2) | 12.2±0.8 % of cells | 16.6±5.2 % of cells |  |  |
| CC(C)C[C@H](NC(=O)[C@H](CO)NC(=O)[C@H](CO)NC(=O)[C@H](CO)NC(=O)[C@@H](NC(=O)[C@@H]1CCCN1C(=O)[C@H](C)NC(=O)[C@H](CO)NC(=O)[C@H](Cc1ccc(O)cc1)NC(=O)[C@H](CO)NC(=O)[C@H](CO)NC(=O)[C@H](Cc1ccc(O)cc1)NC(=O)CCCC[C@@H]1SC[C@@H]2NC(=O)N[C@@H]21)C(C)C)C(=O)N[C@@H](CO)C(=O)N[C@H](C(=O)N[C@@H](CCCNC(=N)N)C(=O)N[C@@H](CCCNC(=N)N)C(=O)N[C@@H](CC(=O)O)C(=O)N[C@@H](Cc1ccc(O)cc1)C(=O)N[C@@H](CC(=O)O)C(=O)N[C@@H](CO)C(=O)N[C@@H](CO)C(=O)N[C@@H](CO)C(=O)NCC(=O)N[C@@H](CO)C(N)=O)C(C)C [Ser17,19Asp] (Biotin-YSSYSAPVSSSLSVRRDYDSSSGS-NH2) | 29.0±12.7 % of cells | 18.6±6.8 % of cells | decreased internalization | not altered |
| CC(C)C[C@H](NC(=O)[C@H](CO)NC(=O)[C@H](CO)NC(=O)[C@H](CO)NC(=O)[C@@H](NC(=O)[C@@H]1CCCN1C(=O)[C@H](C)NC(=O)[C@H](CO)NC(=O)[C@H](Cc1ccc(O)cc1)NC(=O)[C@H](CO)NC(=O)[C@H](CO)NC(=O)[C@H](Cc1ccc(O)cc1)NC(=O)CCCC[C@@H]1SC[C@@H]2NC(=O)N[C@@H]21)C(C)C)C(=O)N[C@@H](CO)C(=O)N[C@H](C(=O)N[C@@H](CCCNC(=N)N)C(=O)N[C@@H](CCCNC(=N)N)C(=O)N[C@@H](COP(=O)(O)O)C(=O)N[C@@H](Cc1ccc(O)cc1)C(=O)N[C@@H](COP(=O)(O)O)C(=O)N[C@@H](CO)C(=O)N[C@@H](CO)C(=O)N[C@@H](CO)C(=O)NCC(=O)N[C@@H](CO)C(N)=O)C(C)C [Ser17,19SerP] (Biotin-YSSYSAPVSSSLSVRR[pS]Y[pS]SSSGS-NH2) | 32±2.1 % of cells | 11.0±3.0 % of cells | decreased internalization | not altered |
| CC(C)C[C@H](NC(=O)[C@H](CO)NC(=O)[C@H](CO)NC(=O)[C@H](CO)NC(=O)[C@@H](NC(=O)[C@@H]1CCCN1C(=O)[C@H](C)NC(=O)[C@H](CO)NC(=O)[C@H](Cc1ccc(O)cc1)NC(=O)[C@H](CO)NC(=O)[C@H](CO)NC(=O)[C@H](Cc1ccc(O)cc1)NC(=O)CCCC[C@@H]1SC[C@@H]2NC(=O)N[C@@H]21)C(C)C)C(=O)N[C@@H](CO)C(=O)N[C@H](C(=O)N[C@@H](CCCNC(=N)N)C(=O)N[C@@H](CCCNC(=N)N)C(=O)N[C@@H](C)C(=O)N[C@@H](Cc1ccc(O)cc1)C(=O)N[C@@H](CO)C(=O)N[C@@H](CO)C(=O)N[C@@H](CO)C(=O)N[C@@H](CO)C(=O)NCC(=O)N[C@@H](CO)C(N)=O)C(C)C [Ser17Ala] (Biotin-YSSYSAPVSSSLSVRRAYSSSSGS-NH2) | 4.6±1.8 % of cells | 18.1±4.4 % of cells |  |  |
| CC(C)C[C@H](NC(=O)[C@H](CO)NC(=O)[C@H](CO)NC(=O)[C@H](CO)NC(=O)[C@@H](NC(=O)[C@@H]1CCCN1C(=O)[C@H](C)NC(=O)[C@H](CO)NC(=O)[C@H](Cc1ccc(O)cc1)NC(=O)[C@H](CO)NC(=O)[C@H](CO)NC(=O)[C@H](Cc1ccc(O)cc1)NC(=O)CCCC[C@@H]1SC[C@@H]2NC(=O)N[C@@H]21)C(C)C)C(=O)N[C@@H](CO)C(=O)N[C@H](C(=O)N[C@@H](CCCNC(=N)N)C(=O)N[C@@H](CCCNC(=N)N)C(=O)N[C@@H](CC(=O)O)C(=O)N[C@@H](Cc1ccc(O)cc1)C(=O)N[C@@H](CO)C(=O)N[C@@H](CO)C(=O)N[C@@H](CO)C(=O)N[C@@H](CO)C(=O)NCC(=O)N[C@@H](CO)C(N)=O)C(C)C [Ser17Asp] (Biotin-YSSYSAPVSSSLSVRRDYSSSSGS-NH2) | 31.3±11.2 % of cells | 22.2±3.4 % of cells | decreased internalization | not altered |
| CC(C)C[C@H](NC(=O)[C@H](CO)NC(=O)[C@H](CO)NC(=O)[C@H](CO)NC(=O)[C@@H](NC(=O)[C@@H]1CCCN1C(=O)[C@H](C)NC(=O)[C@H](CO)NC(=O)[C@H](Cc1ccc(O)cc1)NC(=O)[C@H](CO)NC(=O)[C@H](CO)NC(=O)[C@H](Cc1ccc(O)cc1)NC(=O)CCCC[C@@H]1SC[C@@H]2NC(=O)N[C@@H]21)C(C)C)C(=O)N[C@@H](CO)C(=O)N[C@H](C(=O)N[C@@H](CCCNC(=N)N)C(=O)N[C@@H](CCCNC(=N)N)C(=O)N[C@@H](CO)C(=O)N[C@@H](Cc1ccc(O)cc1)C(=O)N[C@@H](C)C(=O)N[C@@H](CO)C(=O)N[C@@H](CO)C(=O)N[C@@H](CO)C(=O)NCC(=O)N[C@@H](CO)C(N)=O)C(C)C [Ser19Ala] (Biotin-YSSYSAPVSSSLSVRRSYASSSGS-NH2) | 5.2±0.7 % of cells | 14.5±2.7 % of cells |  |  |
| CC(C)C[C@H](NC(=O)[C@H](CO)NC(=O)[C@H](CO)NC(=O)[C@H](CO)NC(=O)[C@@H](NC(=O)[C@@H]1CCCN1C(=O)[C@H](C)NC(=O)[C@H](CO)NC(=O)[C@H](Cc1ccc(O)cc1)NC(=O)[C@H](CO)NC(=O)[C@H](CO)NC(=O)[C@H](Cc1ccc(O)cc1)NC(=O)CCCC[C@@H]1SC[C@@H]2NC(=O)N[C@@H]21)C(C)C)C(=O)N[C@@H](CO)C(=O)N[C@H](C(=O)N[C@@H](CCCNC(=N)N)C(=O)N[C@@H](CCCNC(=N)N)C(=O)N[C@@H](CO)C(=O)N[C@@H](Cc1ccc(O)cc1)C(=O)N[C@@H](CC(=O)O)C(=O)N[C@@H](CO)C(=O)N[C@@H](CO)C(=O)N[C@@H](CO)C(=O)NCC(=O)N[C@@H](CO)C(N)=O)C(C)C [Ser19Asp] (Biotin-YSSYSAPVSSSLSVRRSYDSSSGS-NH2) | 25.2±4.8 % of cells | 19.2±1.5 % of cells | decreased internalization | not altered |
